Key:
Format in all cases: in vivo
[1] = tested on: velvetleaf (Abutilon theophrasti, ABUTH); test: Pre-emerge greenhouse herbicide activity screening, phytotoxicity rating; settings: 14 days after application
How it was run: (§1)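 Greenhouse screen. Sowing preceded application by one day (pre-emergence) or 8-21 days (post-emergence). Doses spanned 15 to 1000 g ai/ha in acetone. Score at day 14: 0 no injury, 100 total kill.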

[2] = tested on: ivyleaf morningglory (Ipomoea hederacea, IPOHE); test: as above; settings: 14 days after application
How it was run: as §1

[3] = tested on: sicklepod (Cassia obtusifolia, CASOB); test: as above; settings: 14 days after application
How it was run: as §1

[4] = tested on: johnsongrass (Sorghum halepense, SORHA); test: as above; settings: 14 days after application
How it was run: as §1

[5] = tested on: lambsquarters (Chenopodium album, CHEAL); test: as above; settings: 14 days after application
How it was run: as §1

[6] = tested on: large crabgrass (Digitaria sanguinalis, DIGSA); test: as above; settings: 14 days after application
How it was run: as §1

[7] = tested on: barnyardgrass (Echinochloa crus-galli, ECHCG); test: as above; settings: 14 days after application
How it was run: as §1

[8] = tested on: common ragweed (Ambrosia artemisiifolia L., AMBEL); test: as above; settings: 14 days after application
How it was run: as §1

[9] = tested on: redroot pigweed (Amaranthus retroflexus, AMARE); test: as above; settings: 14 days after application
How it was run: as §1

[10] = tested on: green foxtail (Setaria viridis, SETVI); test: as above; settings: 14 days after application
How it was run: as §1

[11] = tested on: velvetleaf (Abutilon theophrasti, ABUTH); test: Post-emerge greenhouse herbicide activity screening, phytotoxicity rating; settings: 14 days after application
How it was run: as §1

[12] = tested on: ivyleaf morningglory (Ipomoea hederacea, IPOHE); test: as above; settings: 14 days after application
How it was run: as §1

[13] = tested on: sicklepod (Cassia obtusifolia, CASOB); test: as above
How it was run: as §1

[14] = tested on: johnsongrass (Sorghum halepense, SORHA); test: as above; settings: 14 days after application
How it was run: as §1

[15] = tested on: lambsquarters (Chenopodium album, CHEAL); test: as above
How it was run: as §1

[16] = tested on: large crabgrass (Digitaria sanguinalis, DIGSA); test: as above; settings: 14 days after application
How it was run: as §1

[17] = tested on: barnyardgrass (Echinochloa crus-galli, ECHCG); test: as above; settings: 14 days after application
How it was run: as §1

[18] = tested on: common ragweed (Ambrosia artemisiifolia L., AMBEL); test: as above
How it was run: as §1

[19] = tested on: redroot pigweed (Amaranthus retroflexus, AMARE); test: as above
How it was run: as §1

[20] = tested on: green foxtail (Setaria viridis, SETVI); test: as above
How it was run: as §1

[21] = tested on: field corn (Zea mays L., var. Dekalb 535, CORN); test: Pre-emerge greenhouse screening, crop safety (phytotoxicity rating); settings: 14 days after application
How it was run: as §1

[22] = tested on: soybean (Glycine max L., var. Pella 86, SOY); test: as above; settings: 14 days after application
How it was run: as §1

[23] = tested on: upland rice (Oryza sp., var.Tebonnet, RICE); test: as above; settings: 14 days after application
How it was run: as §1

[24] = tested on: soybean (Glycine max L., var. Pella 86, SOY); test: Post-emerge greenhouse screening, crop safety (phytotoxicity rating); settings: 14 days after application
How it was run: as §1

[25] = tested on: upland rice (Oryza sp., var.Tebonnet, RICE); test: as above; settings: 14 days after application
How it was run: as §1

[26] = tested on: field corn (Zea mays L., var. Dekalb 535, CORN); test: Post-emerge greenhouse screening, crop safety / corn selectivity (phytotoxicity rating); settings: for CORN crop damage, phytotoxicity rating (0-100 scale): 14 days after application
How it was run: as §1

[27] = 125 g ai/ha, 14 days after application
[28] = 250 g ai/ha, 14 days after application

Cn1c(=S)n(C)c(=O)n(-c2cc(Oc3ccccc3[N+](=O)[O-])c(Cl)cc2F)c1=O [Compound 2-17] was tested. Which “ABUTH phytotoxicity rating (0-100 scale)” value ([1]; 125 g ai/ha) did it give?
The value was 60.

What about the “ABUTH phytotoxicity rating (0-100 scale)” value ([1]; 250 g ai/ha) of the same molecule?
The value was 70.

What about the “IPOHE phytotoxicity rating (0-100 scale)” value ([2]; 125 g ai/ha) of the same molecule?
Its value is 30.

What about the “IPOHE phytotoxicity rating (0-100 scale)” value ([2]; 250 g ai/ha) of the same molecule?
Its value is 50.

What about the “CASOB phytotoxicity rating (0-100 scale)” value ([3]; 125 g ai/ha) of the same molecule?
The value was 0.

What about the “CASOB phytotoxicity rating (0-100 scale)” value ([3]; 250 g ai/ha) of the same molecule?
Its value is 30.

And the “SORHA phytotoxicity rating (0-100 scale)” value ([4]; 125 g ai/ha)?
The value was 25.

What about the “SORHA phytotoxicity rating (0-100 scale)” value ([4]; 250 g ai/ha) of the same molecule?
Its value is 50.

And the “CHEAL phytotoxicity rating (0-100 scale)” value ([5]; 125 g ai/ha)?
The value was 100.

What about the “CHEAL phytotoxicity rating (0-100 scale)” value ([5]; 250 g ai/ha) of the same molecule?
The value was 100.

And the “DIGSA phytotoxicity rating (0-100 scale)” value ([6]; 125 g ai/ha)?
Its value is 60.

And the “DIGSA phytotoxicity rating (0-100 scale)” value ([6]; 250 g ai/ha)?
Its value is 80.

What about the “ECHCG phytotoxicity rating (0-100 scale)” value ([7]; 125 g ai/ha) of the same molecule?
Its value is 30.

And the “ECHCG phytotoxicity rating (0-100 scale)” value ([7]; 250 g ai/ha)?
The value was 30.

And the “AMBEL phytotoxicity rating (0-100 scale)” value ([8]; 125 g ai/ha)?
Its value is 0.

What about the “AMBEL phytotoxicity rating (0-100 scale)” value ([8]; 250 g ai/ha) of the same molecule?
Its value is 0.

What about the “AMARE phytotoxicity rating (0-100 scale)” value ([9]; 125 g ai/ha) of the same molecule?
The value was 99.

And the “AMARE phytotoxicity rating (0-100 scale)” value ([9]; 250 g ai/ha)?
Its value is 100.

And the “SETVI phytotoxicity rating (0-100 scale)” value ([10]; 125 g ai/ha)?
Its value is 85.

And the “SETVI phytotoxicity rating (0-100 scale)” value ([10]; 250 g ai/ha)?
The value was 98.

What about the “ABUTH phytotoxicity rating (0-100 scale)” value ([11]; 125 g ai/ha) of the same molecule?
The value was 95.

And the “ABUTH phytotoxicity rating (0-100 scale)” value ([11]; 250 g ai/ha)?
Its value is 98.

And the “IPOHE phytotoxicity rating (0-100 scale)” value ([12]; 125 g ai/ha)?
The value was 0.

And the “IPOHE phytotoxicity rating (0-100 scale)” value ([12]; 250 g ai/ha)?
The value was 0.

What about the “CASOB phytotoxicity rating (0-100 scale)” value ([13]; 31.3 g ai/ha) of the same molecule?
Its value is 0.

And the “CASOB phytotoxicity rating (0-100 scale)” value ([13]; 62.5 g ai/ha)?
Its value is 0.

And the “CASOB phytotoxicity rating (0-100 scale)” value [13, 27]?
Its value is 25.

And the “CASOB phytotoxicity rating (0-100 scale)” value [13, 28]?
The value was 65.

What about the “SORHA phytotoxicity rating (0-100 scale)” value ([14]; 125 g ai/ha) of the same molecule?
The value was 0.

What about the “SORHA phytotoxicity rating (0-100 scale)” value ([14]; 250 g ai/ha) of the same molecule?
Its value is 0.

And the “CHEAL phytotoxicity rating (0-100 scale)” value ([15]; 31.3 g ai/ha)?
Its value is 90.

What about the “CHEAL phytotoxicity rating (0-100 scale)” value ([15]; 62.5 g ai/ha) of the same molecule?
Its value is 90.

And the “CHEAL phytotoxicity rating (0-100 scale)” value [15, 27]?
The value was 95.

What about the “CHEAL phytotoxicity rating (0-100 scale)” value [15, 28] of the same molecule?
The value was 95.

What about the “DIGSA phytotoxicity rating (0-100 scale)” value ([16]; 125 g ai/ha) of the same molecule?
The value was 0.

And the “DIGSA phytotoxicity rating (0-100 scale)” value ([16]; 250 g ai/ha)?
The value was 35.

What about the “ECHCG phytotoxicity rating (0-100 scale)” value ([17]; 125 g ai/ha) of the same molecule?
Its value is 0.

What about the “ECHCG phytotoxicity rating (0-100 scale)” value ([17]; 250 g ai/ha) of the same molecule?
The value was 25.

What about the “AMBEL phytotoxicity rating (0-100 scale)” value ([18]; 31.3 g ai/ha) of the same molecule?
The value was 50.

And the “AMBEL phytotoxicity rating (0-100 scale)” value ([18]; 62.5 g ai/ha)?
The value was 50.

What about the “AMBEL phytotoxicity rating (0-100 scale)” value [18, 27] of the same molecule?
The value was 60.

And the “AMBEL phytotoxicity rating (0-100 scale)” value [18, 28]?
The value was 75.

And the “AMARE phytotoxicity rating (0-100 scale)” value ([19]; 31.3 g ai/ha)?
Its value is 80.

And the “AMARE phytotoxicity rating (0-100 scale)” value ([19]; 62.5 g ai/ha)?
The value was 80.

And the “AMARE phytotoxicity rating (0-100 scale)” value [19, 27]?
Its value is 80.

And the “AMARE phytotoxicity rating (0-100 scale)” value [19, 28]?
The value was 80.

What about the “SETVI phytotoxicity rating (0-100 scale)” value ([20]; 31.3 g ai/ha) of the same molecule?
The value was 0.

What about the “SETVI phytotoxicity rating (0-100 scale)” value ([20]; 62.5 g ai/ha) of the same molecule?
Its value is 0.

And the “SETVI phytotoxicity rating (0-100 scale)” value [20, 27]?
The value was 0.

What about the “SETVI phytotoxicity rating (0-100 scale)” value [20, 28] of the same molecule?
Its value is 0.

And the “CORN crop damage, phytotoxicity rating (0-100 scale)” value (“CORN crop damage” below) ([21]; 125 g ai/ha)?
Its value is 0.

What about the “CORN crop damage” value ([21]; 250 g ai/ha) of the same molecule?
Its value is 0.

And the “SOY crop damage, phytotoxicity rating (0-100 scale)” value (shortened to “SOY crop damage”) ([22]; 125 g ai/ha)?
Its value is 0.

What about the “SOY crop damage” value ([22]; 250 g ai/ha) of the same molecule?
The value was 10.

And the “RICE crop damage, phytotoxicity rating (0-100 scale)” value (“RICE crop damage” below) ([23]; 125 g ai/ha)?
Its value is 0.

What about the “RICE crop damage” value ([23]; 250 g ai/ha) of the same molecule?
The value was 0.

What about the “SOY crop damage” value ([24]; 125 g ai/ha) of the same molecule?
Its value is 0.

And the “SOY crop damage” value ([24]; 250 g ai/ha)?
The value was 25.

What about the “RICE crop damage” value ([25]; 125 g ai/ha) of the same molecule?
The value was 0.

What about the “RICE crop damage” value ([25]; 250 g ai/ha) of the same molecule?
The value was 0.

What about the “CORN selectivity, phytotoxicity rating (0-100 scale)” value ([26]; 62.5 g ai/ha) of the same molecule?
The value was 3.

And the “CORN crop damage” value ([26]; 125 g ai/ha)?
Its value is 5.

And the “CORN crop damage” value ([26]; 250 g ai/ha)?
Its value is 8.

Reference: patent publication US6613718B2, “Aryl ether derivatives and processes for their preparation and herbicidal and desiccant compositions containing them” (Ishihara Sangyo Kaisha, Ltd., priority 2001, dated 2003)
